From ChEMBL document CHEMBL1201862, “PubChem BioAssay data set” (2004)
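Results reflect a 48-hour exposure of cells in 96-well plates to compound at five concentrations. GI50 marks 50% less growth.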 Activity calls are given as the source filed them. Cut-off read from the data, not from the text of the source: active = GI50 up to about 1.1 µM and inactive = higher.

Legend:
Assay in all cases: growth of human tumour cells (NCI), 48 h
HOP-62 = test system: HOP-62
HCT-116 = test system: HCT-116
RPMI-8226 = test system: RPMI-8226
SN12C = test system: SN12C
SF-295 = test system: SF-295
OVCAR-3 = test system: OVCAR-3
SF-268 = test system: SF-268
SK-MEL-5 = test system: SK-MEL-5
K562 = test system: K562
HCC 2998 = test system: HCC 2998
OVCAR-5 = test system: OVCAR-5
SNB-19 = test system: SNB-19
NCI-H23 = test system: NCI-H23
U-251 = test system: U-251
CCRF-CEM = test system: CCRF-CEM
NCI-H460 = test system: NCI-H460
A549 = test system: A549
MOLT-4 = test system: MOLT-4
Malme-3M = test system: Malme-3M
OVCAR-8 = test system: OVCAR-8

Compound | GI50 (HOP-62) | GI50 (HCT-116) | GI50 (RPMI-8226) | GI50 (SN12C) | GI50 (SF-295) | GI50 (OVCAR-3) | GI50 (SF-268) | GI50 (SK-MEL-5) | GI50 (K562) | GI50 (HCC 2998) | GI50 (OVCAR-5) | GI50 (SNB-19) | GI50 (NCI-H23) | GI50 (U-251) | GI50 (CCRF-CEM) | GI50 (NCI-H460) | GI50 (A549) | GI50 (MOLT-4) | GI50 (Malme-3M) | GI50 (OVCAR-8)
COc1ccc(/C=C2\CC3C4CC=C5C[C@@H](O)CC[C@]5(C)C4CC[C@]3(C)\C2=N\O)cc1OC (stereo not given in full) | 18.2 µM (inactive) | 5.14 µM (inactive) | 7.24 µM (inactive) | 15.7 µM (inactive) | 4.13 µM (inactive) | 2.69 µM (inactive) | 18.1 µM (inactive) | 4.1 µM (inactive) | 4.98 µM (inactive) | 7.13 µM (inactive) | 16 µM (inactive) | 70.6 µM (inactive) | 9.71 µM (inactive) | 9.2 µM (inactive) | 18.2 µM (inactive) | 6.61 µM (inactive) | 5.2 µM (inactive) | 5.37 µM (inactive) | 33.3 µM (inactive) | 8.97 µM (inactive)
CC(C)=C1C2CC3(C)CCC2(C)CCC13.CC1=CCC2C3(C)CCC2(C(C)C)C1C3 (stereo not given) | 22.3 µM (inactive) | 31.6 µM (inactive) | 24.9 µM (inactive) | 18.2 µM (inactive) | 20 µM (inactive) | 16.5 µM (inactive) | 19.3 µM (inactive) | 10 µM (inactive) | 31.4 µM (inactive) | 23.1 µM (inactive) | 18.9 µM (inactive) | 18.4 µM (inactive) | 38.3 µM (inactive) | 23.4 µM (inactive) | 24.5 µM (inactive) | 17.2 µM (inactive) | 19.7 µM (inactive) | 31.9 µM (inactive) | 43.8 µM (inactive) | 17.3 µM (inactive)
COC(=O)C1(Cc2ccccc2)Cc2cc3c(cc2C1)CCC3 | 50.2 µM (inactive) | 22 µM (inactive) | 15.4 µM (inactive) | 42.3 µM (inactive) | 37.5 µM (inactive) | 33.7 µM (inactive) | 41.4 µM (inactive) | 17.2 µM (inactive) | 17 µM (inactive) | 34.1 µM (inactive) | 27.7 µM (inactive) | 37.6 µM (inactive) | 38.5 µM (inactive) | 22.4 µM (inactive) | 14.9 µM (inactive) | 33.3 µM (inactive) | 29.6 µM (inactive) | 15.5 µM (inactive) | 22.3 µM (inactive) | 25.3 µM (inactive)
C/C(=N\O)C1CC(CC(=O)O)C1(C)C (stereo not given) | > 100 µM (inactive) | > 100 µM (inactive) | > 100 µM (inactive) | > 100 µM (inactive) | > 100 µM (inactive) | 10.2 µM (inactive) | > 100 µM (inactive) | > 100 µM (inactive) | > 100 µM (inactive) | 90.2 µM (inactive) | > 100 µM (inactive) | > 100 µM (inactive) | > 100 µM (inactive) | > 100 µM (inactive) | > 100 µM (inactive) | > 100 µM (inactive) | > 100 µM (inactive) | > 100 µM (inactive) | > 100 µM (inactive) | > 100 µM (inactive)
CCN1C(=O)C(=Cc2ccc(-c3ccccc3)cc2)C(=O)N(CC)C1=S | > 100 µM (inactive) | 97.3 µM (inactive) | > 100 µM (inactive) | > 100 µM (inactive) | > 100 µM (inactive) | > 100 µM (inactive) | > 100 µM (inactive) | > 100 µM (inactive) | 38.5 µM (inactive) | > 100 µM (inactive) | > 100 µM (inactive) | > 100 µM (inactive) | > 100 µM (inactive) | 75.2 µM (inactive) | 48.9 µM (inactive) | > 100 µM (inactive) | > 100 µM (inactive) | 30.3 µM (inactive) | > 100 µM (inactive) | > 100 µM (inactive)
CCOCCOc1ccc(OCCOCC)cc1 | > 100 µM (inactive) | 17.2 µM (inactive) | 3.51 µM (inactive) | 16.8 µM (inactive) | 25.4 µM (inactive) | 30.1 µM (inactive) | 17 µM (inactive) | 22.4 µM (inactive) | 7.91 µM (inactive) | 37.3 µM (inactive) | > 100 µM (inactive) | > 100 µM (inactive) | 29.9 µM (inactive) | 34 µM (inactive) | 2.74 µM (inactive) | 29.5 µM (inactive) | 37.6 µM (inactive) | 7.71 µM (inactive) | 13.4 µM (inactive) | 16.6 µM (inactive)
COc1cccc(NC(=O)CC(=O)n2nc(-c3ccccc3)c(/N=N/c3ccc(Cl)cc3)c2-c2ccccc2)c1 | 15.2 µM (inactive) | 19.4 µM (inactive) | 12 µM (inactive) | 18.6 µM (inactive) | 12.9 µM (inactive) | 22.1 µM (inactive) | 11.6 µM (inactive) | 16.8 µM (inactive) | 12.4 µM (inactive) | 17.2 µM (inactive) | 64.9 µM (inactive) | 17.8 µM (inactive) | 20 µM (inactive) | 7.87 µM (inactive) | 6.92 µM (inactive) | 10.5 µM (inactive) | 26.1 µM (inactive) | 9.84 µM (inactive) | 13.7 µM (inactive) | 15.8 µM (inactive)
O=C(Nc1ccccc1Br)c1cccc([N+](=O)[O-])c1O | 2.32 µM (inactive) | 3.84 µM (inactive) | 1.52 µM (inactive) | 3.94 µM (inactive) | 3.87 µM (inactive) | 2.07 µM (inactive) | 4.47 µM (inactive) | 2.16 µM (inactive) | 3.13 µM (inactive) | 2.49 µM (inactive) | 5.13 µM (inactive) | 3.81 µM (inactive) | 2.5 µM (inactive) | 2.85 µM (inactive) | 2.78 µM (inactive) | 4.6 µM (inactive) | 3.37 µM (inactive) | 2.26 µM (inactive) | 2.48 µM (inactive) | 4.16 µM (inactive)
CSCC(CO)NC(=O)/C=C/c1c(C)[nH]c(=O)[nH]c1=O (stereo not given) | 596 µM (inactive) | 507 µM (inactive) | 661 µM (inactive) | 367 µM (inactive) | > 875 µM (inactive) | 53.1 µM (inactive) | 223 µM (inactive) | > 820 µM (inactive) | 117 µM (inactive) | 85.1 µM (inactive) | 352 µM (inactive) | 791 µM (inactive) | 690 µM (inactive) | 462 µM (inactive) | 153 µM (inactive) | 671 µM (inactive) | > 875 µM (inactive) | 232 µM (inactive) | 307 µM (inactive) | 228 µM (inactive)
COC(=O)[C@@H](NC(=O)[C@H](N)Cc1ccc(N(CCCl)CCCl)cc1)C(C)C | 19.9 µM (inactive) | 15 µM (inactive) | 5.3 µM (inactive) | 13.9 µM (inactive) | 18.7 µM (inactive) | 6.38 µM (inactive) | 10.6 µM (inactive) | 1.78 µM (inactive) | 12.9 µM (inactive) | 5.55 µM (inactive) | 36.5 µM (inactive) | > 54.1 µM (inactive) | 3.66 µM (inactive) | 19.4 µM (inactive) | 0.435 µM (active) | 10.1 µM (inactive) | 18.2 µM (inactive) | 0.0204 µM (active) | 1.92 µM (inactive) | 7.06 µM (inactive)
CC1OC(O)CC(OC(=O)c2ccccc2)C1OC(=O)c1ccccc1 (stereo not given) | 71.6 µM (inactive) | 11.3 µM (inactive) | 8.18 µM (inactive) | 17.3 µM (inactive) | 48 µM (inactive) | 19.1 µM (inactive) | 16.2 µM (inactive) | 16.7 µM (inactive) | 16.8 µM (inactive) | 43.6 µM (inactive) | > 100 µM (inactive) | 90.4 µM (inactive) | 16 µM (inactive) | 30.1 µM (inactive) | 10.3 µM (inactive) | 49.4 µM (inactive) | > 100 µM (inactive) | 13.9 µM (inactive) | 16.6 µM (inactive) | 15.7 µM (inactive)
Nc1cc(S(=O)(=O)O)cc2cc(S(=O)(=O)O)c(/N=N/c3ccc(-c4ccc(/N=N/c5c(S(=O)(=O)O)cc6cc(S(=O)(=O)O)cc(N)c6c5O)cc4)cc3)c(O)c12 | > 100 µM (inactive) | > 100 µM (inactive) | > 100 µM (inactive) | > 100 µM (inactive) | > 100 µM (inactive) | > 100 µM (inactive) | > 100 µM (inactive) | > 100 µM (inactive) | > 100 µM (inactive) | > 100 µM (inactive) | > 100 µM (inactive) | > 100 µM (inactive) | > 100 µM (inactive) | > 100 µM (inactive) | > 100 µM (inactive) | > 100 µM (inactive) | > 100 µM (inactive) | > 100 µM (inactive) | > 100 µM (inactive) | > 100 µM (inactive)
CC1(C)[C@@H]2C[C@H]1C(Cc1ccccc1C[C@H]1c3cc(-c4ccccn4)ncc3[C@H]3C[C@@H]1C3(C)C)c1cc(-c3ccccn3)ncc12 (stereo not given in full) | 0.147 µM (active) | 0.342 µM (active) | 0.348 µM (active) | 0.479 µM (active) | 0.408 µM (active) | 0.387 µM (active) | 0.292 µM (active) | 0.0834 µM (active) | 0.356 µM (active) | 0.982 µM (active) | 0.791 µM (active) | 0.611 µM (active) | 0.726 µM (active) | 0.324 µM (active) | 0.223 µM (active) | 0.337 µM (active) | 0.371 µM (active) | 0.236 µM (active) | 0.678 µM (active) | 0.378 µM (active)
N[C@@H](CSCSC[C@H](N)C(=O)O)C(=O)O | > 225 µM (inactive) | > 225 µM (inactive) | > 225 µM (inactive) | > 225 µM (inactive) | > 225 µM (inactive) | > 225 µM (inactive) | > 225 µM (inactive) | > 225 µM (inactive) | > 225 µM (inactive) | > 225 µM (inactive) | > 225 µM (inactive) | 174 µM (inactive) | > 225 µM (inactive) | > 225 µM (inactive) | 89.5 µM (inactive) | > 225 µM (inactive) | > 225 µM (inactive) | 195 µM (inactive) | > 225 µM (inactive) | 35.6 µM (inactive)
